pIC50, pKd: −log10 of the molar value. *1 amine or outer side, *2 acyl side, *3 side chain or, on linkers, in order; H or OH if unused. Where a SMILES comes first, the peptide text is derived from it. Bridges are numbered along the chain shown (N, C = ends). [ ]: non-standard residue; d: D form. The star is where a group is joined. hPhe(3-Cl-4-CF3) = N[C@@H](CCc1ccc(C(F)(F)F)c(Cl)c1)C(=O)O; NPrPhe(4-CF3) = CCCN[C@@H](Cc1ccc(C(F)(F)F)cc1)C(=O)O; X2 = C[C@@H]1CN([*:1])[C@@H]1C(=O)[*:2]; NMeGly(cPent) = CN[C@H](C(=O)O)C1CCCC1; X9 = CC1(C)CN([*:1])[C@@H]1C(=O)[*:2]; NMeD = CN[C@@H](CC(=O)O)C(=O)O; NMeL = CN[C@@H](CC(C)C)C(=O)O; Pip = O=C(O)[C@@H]1CCCCN1; Morpholide = C1CN(*)CCO1; Ac5c = NC1(C(=O)O)CCCC1; Aze = O=C(O)[C@@H]1CCN1; Sar = CNCC(=O)O
Key:
[1] = target: GDP-bound KRAS wild-type protein (Homo sapiens, UniProt P01116); assay: Binding to KRAS by surface plasmon resonance (SPR), dissociation constant KD
In short: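 Affinity is measured by surface plasmon resonance at 30°C against captured, GDP-loaded RAS carrying a biotinylated Avi tag. Compounds are titrated by single-cycle kinetics, and KD comes from a 1:1 fit.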

HRAS wild-type protein = HRAS wild-type protein (Homo sapiens, UniProt P01112); assay: Binding to HRAS by surface plasmon resonance (SPR), KD and KD ratio to KRAS
In short: (§1)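 GDP-bound biotin-Avi RAS captured at ~100–300 RU, 30°C, pH 7.4 HBS containing 10 µM GDP, 10 mM MgCl2, 1 mM DTT, 0.01% Tween 20 and 4% DMSO. KD by 1:1 fitting.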

[2] = tested on: human lung cancer strain NCI-H441; format: cell-based
In short: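 Readout: […] after the ATP-based reagent. Compound: serial dilutions in dimethyl sulfoxide.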

[3] = target: GDP-bound NRAS wild-type protein (Homo sapiens, UniProt P01111); assay: Binding to NRAS by surface plasmon resonance (SPR), KD and KD ratio to KRAS
In short: as §1

[4] = Single Cycle Kinetics, 1:1 binding model
[5] = ratio of the KD value with respect to HRAS wild-type protein to the KD value with respect to KRAS
[6] = ratio of the KD value with respect to GDP-bound NRAS wild-type protein to the KD value with respect to KRAS
[7] = ratio of KD for HRAS wild-type protein to KD for KRAS
[8] = ratio of KD for GDP-bound NRAS wild-type protein to KD for KRAS
[9] = ratio of KD value for HRAS wild-type protein to KD value for KRAS (SPR)
[10] = ratio of KD value for GDP-bound NRAS wild-type protein to KD value for KRAS (SPR)

Sequence of GDP-bound NRAS wild-type protein (P01111 whole entry): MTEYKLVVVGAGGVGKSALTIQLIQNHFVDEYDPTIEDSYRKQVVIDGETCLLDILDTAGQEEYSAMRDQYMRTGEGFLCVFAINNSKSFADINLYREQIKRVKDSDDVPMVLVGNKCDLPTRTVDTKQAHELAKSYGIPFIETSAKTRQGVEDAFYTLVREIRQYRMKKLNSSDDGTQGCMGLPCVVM
Sequence of GDP-bound KRAS wild-type protein (P01116 1-188 isoform P01116-2): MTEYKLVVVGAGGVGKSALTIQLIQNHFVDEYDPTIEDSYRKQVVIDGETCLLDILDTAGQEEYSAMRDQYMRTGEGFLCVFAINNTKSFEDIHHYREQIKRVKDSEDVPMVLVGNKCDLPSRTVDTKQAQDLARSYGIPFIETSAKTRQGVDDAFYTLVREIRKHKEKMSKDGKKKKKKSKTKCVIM
Sequence of HRAS wild-type protein (P01112 whole entry): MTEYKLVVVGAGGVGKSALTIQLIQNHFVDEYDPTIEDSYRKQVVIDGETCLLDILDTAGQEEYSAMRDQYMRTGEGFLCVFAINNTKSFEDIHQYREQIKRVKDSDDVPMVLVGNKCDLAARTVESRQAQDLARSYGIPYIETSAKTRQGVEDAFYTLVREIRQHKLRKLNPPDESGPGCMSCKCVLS

Structure (SMILES) | pKd [1, 4] | pIC50 [2] | pKd ([1]; 1:1 binding model) | pKd ([1]; Single Cycle Kinetics) | HRAS /KRAS (HRAS wild-type protein; [5]) | NRAS /KRAS [3, 6] | HRAS /KRAS (HRAS wild-type protein; [7]) | NRAS /KRAS [3, 8] | HRAS /KRAS (HRAS wild-type protein; [9]) | NRAS /KRAS [3, 10]
CCCN1C(=O)[C@@H]2CCN2C(=O)[C@@H]2CCCCN2C(=O)[C@H]([C@@H](C)CC)NC(=O)[C@H](CC(C)C)N(C)C(=O)C[C@@H](C(=O)N2CCOCC2)N(C)C(=O)[C@H](C2CCCC2)N(C)C(=O)C2(CCCC2)NC(=O)[C@@H]2CCCN2C(=O)[C@H](CCc2ccc(C(F)(F)F)c(Cl)c2)NC(=O)CN(C)C(=O)[C@@H]1Cc1ccc(C(F)(F)F)cc1 [PP0077] ([NMeL]I[Pip][Aze][NPrPhe(4-CF3)][Sar][hPhe(3-Cl-4-CF3)]P[Ac5c][NMeGly(cPent)][NMeD]-Morpholide; lactam N-11) |  | 8.28 | 9.70 |  |  |  | B (a compound having 3 or more and less than 10 is denoted as B) | C (A compound having a KD ratio of 0.1 or more and less than 3 is denoted as C) |  | 
CC[C@H](C)[C@@H]1NC(=O)[C@H](CC(C)C)N(C)C(=O)C[C@@H](C(=O)N2CCOCC2)N(C)C(=O)[C@H](C2CCCC2)N(C)C(=O)C2(CCCC2)NC(=O)[C@@H]2CCCN2C(=O)[C@H](CCc2ccc(C(F)(F)F)c(Cl)c2)NC(=O)CN(C)C(=O)[C@H](Cc2ccc(Cl)cc2)N2CCCC[C@@H](C2=O)N(C)C(=O)CN(C)C1=O [PP0532] | 10.18 | 8.16 |  |  | B (a compound having 3 or more and less than 10 is denoted as B) | C (A compound having a KD ratio of 0.1 or more and less than 3 is denoted as C) |  |  |  | 
CC[C@H](C)[C@@H]1NC(=O)[C@H](CC(C)C)N(C)C(=O)C[C@@H](C(=O)N2CCOCC2)N(C)C(=O)[C@H](C2CCCC2)N(C)C(=O)C2(CCC2)NC(=O)[C@@H]2CC(F)(F)CN2C(=O)[C@H](CCc2ccc(C(F)(F)F)c(Cl)c2)NC(=O)CN(C)C(=O)[C@H](Cc2ccc(F)cc2)N2CCCCC[C@@H](C2=O)N(C)C(=O)CN(C)C1=O [PP0969] |  | 7.87 |  | 9.92 |  |  | B (a compound having 3 or more and less than 10 is denoted as B) | B (a compound having 3 or more and less than 10 is denoted as B) |  | 
CCCN1C(=O)[C@@H]2CCN2C(=O)[C@H]2N(CC2(C)C)C(=O)[C@H]([C@@H](C)CC)NC(=O)[C@H](CC(C)C)N(C)C(=O)C[C@@H](C(=O)N2CCOCC2)N(C)C(=O)[C@H](C2CCCC2)N(C)C(=O)C2(CCCC2)NC(=O)[C@@H]2CCCN2C(=O)[C@H](CCc2ccc(C(F)(F)F)c(Cl)c2)NC(=O)CN(C)C(=O)[C@@H]1Cc1ccc(C(F)(F)F)cc1 [PP0277] ([NMeL]I[X9][Aze][NPrPhe(4-CF3)][Sar][hPhe(3-Cl-4-CF3)]P[Ac5c][NMeGly(cPent)][NMeD]-Morpholide; lactam N-11) |  | 8.17 | 9.28 |  |  |  | C (A compound having a KD ratio of 0.1 or more and less than 3 is denoted as C) | C (A compound having a KD ratio of 0.1 or more and less than 3 is denoted as C) |  | 
CCO[C@@H]1C[C@H]2C(=O)NC3(CCC3)C(=O)N(C)[C@@H](C(CC)CC)C(=O)N(C)[C@H](C(=O)N(C)C)CC(=O)N(C)[C@@H](CC3CC3)C(=O)N[C@@H]([C@@H](C)CC)C(=O)N(C)CC(=O)N(C)[C@H]3C/C=C\CCN(C3=O)[C@@H](Cc3ccc(F)cc3C)C(=O)N(C)CC(=O)N[C@@H](CCc3cc(F)c(C(F)(F)F)c(F)c3)C(=O)N2C1 [PP1514] | 9.19 | 7.14 |  |  |  |  |  |  | A (a compound having 10 or more and less than 20 is denoted as A) | A (a compound having 10 or more and less than 20 is denoted as A)

Second part, led by results:

pKd [1, 4] | pIC50 [2] | pKd ([1]; 1:1 binding model) | pKd ([1]; Single Cycle Kinetics) | Structure (SMILES) | HRAS /KRAS (HRAS wild-type protein; [5]) | NRAS /KRAS [3, 6] | HRAS /KRAS (HRAS wild-type protein; [7]) | NRAS /KRAS [3, 8] | HRAS /KRAS (HRAS wild-type protein; [9]) | NRAS /KRAS [3, 10]
6.96 | 5.58 |  |  | CCO[C@@H]1C[C@H]2C(=O)NC3(CCC3)C(=O)N(C)[C@@H](C3CCCC3)C(=O)N(CCc3ccccc3)[C@H](C(=O)N3CCOCC3)CC(=O)N(C)[C@@H](CC(C)C)C(=O)N[C@@H]([C@@H](C)CC)C(=O)N(C)CC(=O)N(C)[C@H]3CCCCCN(C3=O)[C@@H](Cc3ccc(C(F)(F)F)cc3)C(=O)N(C)CC(=O)N[C@@H](CCc3cc(F)c(C(F)(F)F)c(F)c3)C(=O)N2C1 [PP0642] | B (a compound having 3 or more and less than 10 is denoted as B) | B (a compound having 3 or more and less than 10 is denoted as B) |  |  |  | 
 | 7.15 | 9.11 |  | CCO[C@@H]1C[C@H]2C(=O)NC3(CC(C)(C)C3)C(=O)N(C)[C@@H](C3CCCC3)C(=O)N(C)[C@H](C(=O)N(C)C)CC(=O)N(C)[C@@H]([C@H](C)OC)C(=O)N[C@@H]([C@@H](C)CC)C(=O)N3CCC[C@H]3C(=O)N(C)[C@H]3C/C=C\CCN(C3=O)[C@@H](Cc3ccc(C(F)(F)F)cc3)C(=O)N(C)CC(=O)N[C@@H](CCc3ccc(C(F)(F)F)c(OC)c3)C(=O)N2C1 [PP3179] |  |  | A (a compound having 10 or more and less than 20 is denoted as A) | A (a compound having 10 or more and less than 20 is denoted as A) |  | 
 | 7.17 |  | 9.24 | CC[C@H](C)[C@@H]1NC(=O)[C@H](CC(C)C)N(C)C(=O)C[C@@H](C)N(C)C(=O)[C@H](C2CCCC2)N(C)C(=O)C2(CCC2)NC(=O)[C@@H]2CCCN2C(=O)[C@H](CCc2cc(F)c(C(F)(F)F)c(F)c2)NC(=O)CN(C)C(=O)[C@H](Cc2ccc(C(F)(F)F)cc2)N2CC/C=C\C[C@@H](C2=O)N(C)C(=O)CN(C)C1=O [PP1099] |  |  | A (a compound having 10 or more and less than 20 is denoted as A) | B (a compound having 3 or more and less than 10 is denoted as B) |  | 
 | 7.51 | 8.85 |  | CCCN1C(=O)CN(C)C(=O)[C@@H]2[C@H](C)CN2C(=O)[C@H]([C@@H](C)CC)NC(=O)[C@H](CC(C)C)N(C)C(=O)C[C@@H](C(=O)N2CCOCC2)N(C)C(=O)[C@H](C2CCCC2)N(C)C(=O)C2(CCCC2)NC(=O)[C@@H]2CCCN2C(=O)[C@H](CCc2ccc(C(F)(F)F)c(Cl)c2)NC(=O)CN(C)C(=O)[C@@H]1Cc1ccc(C(F)(F)F)cc1 [PP0257] ([NMeL]I[X2][Sar][NPrPhe(4-CF3)][Sar][hPhe(3-Cl-4-CF3)]P[Ac5c][NMeGly(cPent)][NMeD]-Morpholide; lactam N-11) |  |  | B (a compound having 3 or more and less than 10 is denoted as B) | B (a compound having 3 or more and less than 10 is denoted as B) |  | 
9.23 | 8.11 |  |  | CC[C@H](C)[C@@H]1NC(=O)[C@H](CC)N(C)C(=O)C[C@@H](C(=O)N(C)C)N(C)C(=O)[C@H](C2CCCC2)N(C)C(=O)C2(CCCC2)N(C)C(=O)[C@@H]2C[C@@H](C)CN2C(=O)[C@H](CCc2cc(F)c(C(F)(F)F)c(F)c2)NC(=O)CN(C)C(=O)[C@H](Cc2ccc(C)cc2)N2CC/C=C\C[C@@H](C2=O)N(C)C(=O)CN(C)C1=O [PP1812] |  |  |  |  | A (a compound having 10 or more and less than 20 is denoted as A) | A (a compound having 10 or more and less than 20 is denoted as A)
9.96 | 7.98 |  |  | CCCN(C)C(=O)[C@@H]1CC(=O)N(C)[C@@H](C2CCC2)C(=O)N[C@@H]([C@@H](C)CC)C(=O)N(C)CC(=O)N(C)[C@H]2C/C=C\CCN(C2=O)[C@@H](Cc2ccc(C(F)(F)F)cc2)C(=O)N(C)CC(=O)N[C@@H](CCc2ccc(C(F)(F)F)c(OC)c2)C(=O)N2C[C@H](OCC)C[C@H]2C(=O)NC2(CCC2)C(=O)N(C)[C@@H](C2CCCC2)C(=O)N1C [PP2023] | B (a compound having 3 or more and less than 10 is denoted as B) | A (a compound having 10 or more and less than 20 is denoted as A) |  |  |  | 

From EP4603105A1, “PHARMACEUTICAL COMPOSITION CONTAINING CYCLIC COMPOUND HAVING SELECTIVE KRAS INHIBITORY EFFECT AGAINST HRAS AND NRAS” (CHUGAI SEIYAKU KABUSHIKI KAISHA, priority 2022, dated 2024)
